The data set is described as follows: Henry's Law constant (molality scale); of the first substance listed, at infinite dilution; xn = mol fraction of the nth substance listed. To be noted: Liquid, Chromatography, x1 = 0.

Data on 25 compounds can be found in the NIST ThermoML archive (doi:10.1021/je3010535).

Values joined by “and” are separate entries in the source; they are usually repeats but may differ in a detail not shown here. Equal values may be shown once. ± gives the expanded uncertainty stated by the source.

As for `C=CC#N` [acrylonitrile] + O, the “Henry's Law constant” value is 1.24 ± 0.37 kPa·kg/mol (274.15 K); 5.23 kPa·kg/mol and 8.07 kPa·kg/mol (294.65 K); 9.19 ± 2.8 kPa·kg/mol (296.15 K); 25.3 ± 7.6 kPa·kg/mol (310.15 K); 40 ± 12 kPa·kg/mol (320.15 K); 73.9 ± 22 kPa·kg/mol (331.15 K). The “Henry's Law constant” value (333.15 K) is 97.8 ± 29 kPa·kg/mol.
For `Cl/C=C\Cl` [(Z)-1,2-dichloroethene] + O, the “Henry's Law constant” value runs as follows: (274.15 K) 131 ± 39 kPa·kg/mol; (294.65 K) 317 kPa·kg/mol and 330 kPa·kg/mol; (296.15 K) 405 ± 120 kPa·kg/mol; (313.15 K) 636 ± 190 kPa·kg/mol; (326.15 K) 1110 ± 330 kPa·kg/mol.
Take `CC(C)O` [propan-2-ol] + O: the “Henry's Law constant” value (273.25 K) worked out at 0.088 kPa·kg/mol, the “Henry's Law constant” value (298.15 K) is 2.14 kPa·kg/mol, the “Henry's Law constant” value (311.15 K) was found to be 1.19 kPa·kg/mol and the “Henry's Law constant” value (332.15 K) stood at 22.9 kPa·kg/mol.
Consider `ClCC(Cl)CCl` [1,2,3-trichloropropane] + O, for which the “Henry's Law constant” value by setting is: (274.15 K) 2.98 ± 0.89 kPa·kg/mol; (294.65 K) 23 kPa·kg/mol and 13.6 kPa·kg/mol; (296.15 K) 28.3 ± 8.5 kPa·kg/mol; (310.15 K) 78.2 ± 23 kPa·kg/mol; (320.15 K) 113 ± 34 kPa·kg/mol; (331.15 K) 208 ± 62 kPa·kg/mol. Where the note is “333.15 K”, the “Henry's Law constant” value is 370 ± 110 kPa·kg/mol.
`ClC(Cl)(Cl)Cl` [tetrachloromethane] + O: the “Henry's Law constant” value (274.15 K) stood at 696 ± 210 kPa·kg/mol; the “Henry's Law constant” value (294.65 K) is 1770 kPa·kg/mol and 1580 kPa·kg/mol; the “Henry's Law constant” value (296.15 K) was 1690 ± 510 kPa·kg/mol; the “Henry's Law constant” value (313.15 K) came out at 4230 ± 1300 kPa·kg/mol; the “Henry's Law constant” value (326.15 K) was determined as 7590 ± 2300 kPa·kg/mol.
With `CCCCc1ccccc1` [butylbenzene] + O, the “Henry's Law constant” value reads like this: (274.15 K) 174 kPa·kg/mol; (296.15 K) 458 kPa·kg/mol; (310.15 K) 481 kPa·kg/mol; (313.15 K) 2290 kPa·kg/mol; (326.15 K) 3470 kPa·kg/mol; (331.15 K) 1280 kPa·kg/mol.
In the case of `Cc1ccc(Cl)cc1` [4-chlorotoluene] + O, the “Henry's Law constant” value worked out at 85.6 kPa·kg/mol (274.15 K); 232 kPa·kg/mol (296.15 K); 224 kPa·kg/mol (310.15 K); 591 kPa·kg/mol (313.15 K); 1240 kPa·kg/mol (326.15 K); 888 kPa·kg/mol (331.15 K).
Regarding `C#CCO` [2-propyn-1-ol] + O, the “Henry's Law constant” value by setting is: (273.25 K) 0.039 ± 0.012 kPa·kg/mol; (298.15 K) 0.255 ± 0.076 kPa·kg/mol; (311.15 K) 0.754 ± 0.23 kPa·kg/mol; (332.15 K) 3.71 ± 1.1 kPa·kg/mol.
With `Cc1cccc2ccccc12` [1-methylnaphthalene] + O, the “Henry's Law constant” value reads like this: (274.15 K) 3.74 ± 1.1 kPa·kg/mol; (294.65 K) 23.4 kPa·kg/mol and 13.3 kPa·kg/mol; (296.15 K) 27.8 ± 8.3 kPa·kg/mol; (310.15 K) 74 ± 22 kPa·kg/mol; (320.15 K) 87.9 ± 26 kPa·kg/mol; (331.15 K) 153 ± 46 kPa·kg/mol. Moreover, where the note is “333.15 K”, the “Henry's Law constant” value stood at 150 ± 45 kPa·kg/mol.
For the compound `CC(=O)c1ccccc1` [acetophenone] + O, the “Henry's Law constant” value (274.15 K) was determined as 0.128 ± 0.039 kPa·kg/mol; the “Henry's Law constant” value (294.65 K) was 0.881 kPa·kg/mol and 0.738 kPa·kg/mol; the “Henry's Law constant” value (296.15 K) worked out at 1.6 ± 0.48 kPa·kg/mol; the “Henry's Law constant” value (310.15 K) turned out to be 2.48 ± 0.75 kPa·kg/mol; the “Henry's Law constant” value (320.15 K) is 4.6 ± 1.4 kPa·kg/mol; the “Henry's Law constant” value (331.15 K) worked out at 8.87 ± 2.7 kPa·kg/mol.
Turning to `C=C(C)C(=O)OC` [methyl methacrylate] + O, the “Henry's Law constant” value was 2.57 ± 0.77 kPa·kg/mol (274.15 K); 24.2 kPa·kg/mol and 12.7 kPa·kg/mol (294.65 K); 24.5 ± 7.4 kPa·kg/mol (296.15 K); 85.1 ± 26 kPa·kg/mol (310.15 K); 132 ± 40 kPa·kg/mol (320.15 K); 250 ± 75 kPa·kg/mol (331.15 K).
For `C=C(C)C#N` [isopropenylnitrile] + O, the “Henry's Law constant” value (274.15 K) was determined as 2.92 ± 1.2 kPa·kg/mol; the “Henry's Law constant” value (294.65 K) was 14.7 kPa·kg/mol and 16.8 kPa·kg/mol; the “Henry's Law constant” value (296.15 K) stood at 16.7 ± 6.7 kPa·kg/mol; the “Henry's Law constant” value (310.15 K) turned out to be 50.9 ± 20 kPa·kg/mol; the “Henry's Law constant” value (320.15 K) amounted to 68.5 ± 27 kPa·kg/mol; the “Henry's Law constant” value (331.15 K) is 147 ± 59 kPa·kg/mol. Also, the “Henry's Law constant” value (333.15 K) was 261 ± 100 kPa·kg/mol.
As for `Clc1ccccc1Cl` [1,2-dichlorobenzene] + O, the “Henry's Law constant” value (274.15 K) stood at 41.1 ± 12 kPa·kg/mol; the “Henry's Law constant” value (294.65 K) is 102 kPa·kg/mol and 115 kPa·kg/mol; the “Henry's Law constant” value (296.15 K) was found to be 119 ± 36 kPa·kg/mol; the “Henry's Law constant” value (310.15 K) worked out at 208 ± 62 kPa·kg/mol; the “Henry's Law constant” value (320.15 K) came to 350 ± 100 kPa·kg/mol; the “Henry's Law constant” value (331.15 K) worked out at 510 ± 150 kPa·kg/mol.
Turning to `COCCO` [2-methoxyethan-1-ol] + O, the “Henry's Law constant” value reads like this: (298.15 K) 0.223 ± 0.067 kPa·kg/mol; (311.15 K) 0.665 ± 0.2 kPa·kg/mol; (332.15 K) 3.28 ± 0.98 kPa·kg/mol.
As for `ClCCl` [dichloromethane] + O, the “Henry's Law constant” value (274.15 K) stood at 85.1 ± 26 kPa·kg/mol; the “Henry's Law constant” value (294.65 K) was 222 kPa·kg/mol and 214 kPa·kg/mol; the “Henry's Law constant” value (296.15 K) is 250 ± 75 kPa·kg/mol; the “Henry's Law constant” value (313.15 K) stood at 523 ± 160 kPa·kg/mol; the “Henry's Law constant” value (326.15 K) is 686 ± 210 kPa·kg/mol.
As for `C1COCCO1` [1,4-dioxane] + O, the “Henry's Law constant” value was 0.0629 ± 0.019 kPa·kg/mol (274.15 K); 0.482 kPa·kg/mol and 0.35 kPa·kg/mol (294.65 K); 0.419 ± 0.13 kPa·kg/mol (296.15 K); 0.84 ± 0.25 kPa·kg/mol (310.15 K); 2 ± 0.6 kPa·kg/mol (320.15 K); 3.92 ± 1.2 kPa·kg/mol (331.15 K).
As for `CCOCC` [diethyl ether] + O, the “Henry's Law constant” value was 16 ± 5 kPa·kg/mol (274.15 K); 68 kPa·kg/mol and 70 kPa·kg/mol (294.65 K); 77 ± 23 kPa·kg/mol (296.15 K); 206 ± 62 kPa·kg/mol (310.15 K); 427 ± 130 kPa·kg/mol (320.15 K); 803 ± 240 kPa·kg/mol (331.15 K).
With `BrC(Br)Br` [tribromomethane] + O, the “Henry's Law constant” value reads like this: (274.15 K) 7.47 ± 2.2 kPa·kg/mol; (294.65 K) 46.4 kPa·kg/mol and 29.9 kPa·kg/mol; (296.15 K) 50.9 ± 15 kPa·kg/mol; (310.15 K) 120 ± 36 kPa·kg/mol; (320.15 K) 200 ± 60 kPa·kg/mol; (331.15 K) 328 ± 98 kPa·kg/mol.
Turning to `COC(C)=O` [methyl ethanoate] + O, the “Henry's Law constant” value was 1.06 ± 0.42 kPa·kg/mol (274.15 K); 5.33 kPa·kg/mol and 7.39 kPa·kg/mol (294.65 K); 7.53 ± 3 kPa·kg/mol (296.15 K); 34.1 ± 14 kPa·kg/mol (310.15 K); 52.4 ± 21 kPa·kg/mol (320.15 K); 83.1 ± 33 kPa·kg/mol (331.15 K). Also, the “Henry's Law constant” value (333.15 K) stood at 125 ± 50 kPa·kg/mol.
`S=C=S` [carbon disulfide] + O: the “Henry's Law constant” value is, setting by setting: (274.15 K) 682 ± 200 kPa·kg/mol; (313.15 K) 2930 ± 880 kPa·kg/mol; (326.15 K) 5690 ± 1700 kPa·kg/mol.
For `ClCc1ccccc1` [(chloromethyl)benzene] + O, the “Henry's Law constant” value is, setting by setting: (273.25 K) 7.81 ± 2.3 kPa·kg/mol; (298.15 K) 50.6 ± 15 kPa·kg/mol; (311.15 K) 139 ± 42 kPa·kg/mol.
In the case of `ClC(Cl)C(Cl)Cl` [1,1,2,2-tetrachloroethane] + O, the “Henry's Law constant” value is 3.6 ± 1.1 kPa·kg/mol (274.15 K); 31.2 kPa·kg/mol and 17.9 kPa·kg/mol (294.65 K); 34.4 ± 10 kPa·kg/mol (296.15 K); 99 ± 30 kPa·kg/mol (310.15 K); 156 ± 47 kPa·kg/mol (320.15 K); 262 ± 79 kPa·kg/mol (331.15 K).
For the compound `COC(C)(C)C` [2-methoxy-2-methylpropane] + O, the “Henry's Law constant” value reads like this: (274.15 K) 5.5 kPa·kg/mol; (296.15 K) 58 kPa·kg/mol; (310.15 K) 59 kPa·kg/mol; (320.15 K) 368 kPa·kg/mol; (331.15 K) 1650 kPa·kg/mol.
As for `FC(F)(Cl)Cl` [dichlorodifluoromethane] + O, the “Henry's Law constant” value turned out to be 1660 ± 500 kPa·kg/mol (274.15 K), 40000 ± 12000 kPa·kg/mol (313.15 K) and 22600 ± 6800 kPa·kg/mol (326.15 K).
For the compound `Cc1ccc(C(C)C)cc1` [1-(1-methylethyl)-4-methylbenzene] + O, the “Henry's Law constant” value runs as follows: (274.15 K) 157 ± 63 kPa·kg/mol; (294.65 K) 389 kPa·kg/mol and 469 kPa·kg/mol; (296.15 K) 502 ± 200 kPa·kg/mol; (310.15 K) 777 ± 310 kPa·kg/mol; (313.15 K) 2150 ± 860 kPa·kg/mol; (326.15 K) 3440 ± 1400 kPa·kg/mol. Also, the “Henry's Law constant” value (331.15 K) turned out to be 1830 ± 730 kPa·kg/mol.
